“Also recorded” adds a separate entry of the source.
What was measured:
DIO mice [1] = assay: Chronic treatment of DIO mice (body weight, food intake, leptin, DEXA); assay type: in vivo; conditions: oral administration
HDAC6 [2] = biological target: HDAC6 (Homo sapiens (Human), UniProt Q9UBN7); conditions: cited from earlier work
[3] = cited from earlier work; for brain penetrance / BBB permeability: in words
DIO mice [4] = assay: Chronic treatment of DIO mice (body weight, food intake, leptin, DEXA); assay type: in vivo; conditions: for food intake and total body fat mass: high fat diet induced mice, summary; for body weight effect of chronic treatment: DIO mice, 3 weeks i.p., bavarostat 10, citarinostat 25, ricolinostat 50 mg/kg
Protocol: DIO mice were treated with ACY775 (10 mg/kg/day, i.p.) for 3 weeks. Daily body weight (g) of DIO mice treated with vehicle (n=17) or ACY775 (n=17) during 3 weeks of treatment was determined. Daily food intake (g) during 3 weeks of vehicle or ACY775 treatment was assessed. 24 hours' food intake per mouse during the first week of vehicle or ACY775 treatment was determined. Serum leptin (ng/ml) levels after 3 weeks of vehicle (n=24) or ACY775 (n=24) treatment was assessed. Lean mass (g), fat mass (g) and fat percentage (%) after 3 weeks of vehicle (n=17) or ACY775 (n=17) treatment measured by Dual-energy X-ray absorptiometry (DEXA) scan. DEXA scans were performed in two different cohorts. Glucose tolerance test (GTT) after 1 week of vehicle (n=33) or ACY775 (n=26) treated DIO mice was assessed. Area of curve (AOC) analysis for GTT was performed. Blood glucose (mg/dl) levels after 1 week of vehicle (n=17) or ACY775 (n=16) were assessed in treated DIO mice. Insulin tolerance test (ITT) was performed after 2 weeks of vehicle (n=31) or ACY775 (n=21) treatment of DIO mice. Serum insulin (ng/ml) levels were measured after 3 weeks of vehicle (n=22) or ACY775 (n=21) in treated DIO mice. A homeostatic model assessment of insulin resistance (HOMA-IR) was analyzed after 3 weeks of vehicle (n=14) or ACY775 (n=13) treated DIO mice.
Food intake was analyzed hourly until 3:00 am. […] DEXA scans were performed in two different cohorts.
DIO mice then were treated with ricolinostat (50 mg/kg, i.p.) for 3 weeks. Daily body weight (g), daily food intake (g), serum leptin (ng/ml) levels after 3 weeks of vehicle (n=8) or ricolinostat (n=8) treatment, lean mass (g); fat mass and fat percentage (%) after 3 weeks of vehicle (n=16) or ricolinostat (n=17) treatment measured by DEXA scan were determined.
Studies were conducted as described above with reference to ACY775.
DIO mice then were treated with bavarostat (10 mg/kg, i.p.) for 3 weeks and daily body weight (g) of DIO mice treated with Veh (n=9) or bavarostat (n=9) measured during the three weeks of treatment period. Daily food intake (g) during 3 weeks of Veh or bavarostat treatment was also measured.
ACY1083 was administered to DIO mice as described in Example 3.

DIO mice [5] = assay: Acute leptin co-treatment in DIO mice (body weight, food intake 15 h); assay type: in vivo; conditions: leptin 1 mg/kg i.p.
Protocol: DIO mice were pretreated with ACY775 (10 mg/kg/day, i.p.) or vehicle for 3 days, which was followed by co-treatment with ACY775 (or vehicle) and leptin (1 mg/kg, i.p.) (or saline) (n=9 for each group), % change in body weight 15 h after leptin treatment, food intake (g) during the 15 h period after leptin treatment. The results in were reproduced in two independent experiments.
Diet induced obese (DIO) mice were pretreated with ACY775 (10 mg/kg/day, i.p.) or vehicle for 3 days, which was followed by co-treatment with ACY775 (or vehicle) and leptin (1 mg/kg, i.p.) (or saline) (n=9 for each group). Mice were evaluated for % change in body weight 15 h after leptin treatment, and food intake (g) during the 15 h period after leptin treatment.
DIO mice were pretreated with ricolinostat (25 mg/kg/day, i.p.) or vehicle for 3 days, which was followed by co-treatment with ricolinostat (or vehicle) and leptin (1 mg/kg, i.p.) (or saline) (n=32 for each group). Change in body weight 15 h after leptin treatment, and food intake (g) during the 15 h period after leptin treatment were determined. The results were reproduced in two independent experiments.

[6] = system: STAT3^Tyr705 phosphorylation; assay: Leptin-stimulated hypothalamic STAT3 phosphorylation in DIO mice; assay type: in vivo; conditions: leptin 1 mg/kg i.p.
Protocol: DIO mice were pretreated with ACY775 (10 mg/kg/day, i.p.) or vehicle for 3 days, which was followed by a last injection of ACY775 (or vehicle) in the morning of fourth day. 6 hours later mice were injected with saline or leptin (1 mg/kg, i.p.) and hypothalamus were extracted after 45 minutes following the leptin injection. Representative immunoblots for STAT3^Tyr705 phosphorylation and total STAT3 from the hypothalamus. Quantification of the ratio of p-STAT3^Tyr705 to total-STAT3 signal in the immunoblots. The results were reproduced in three independent experiments. The results were analyzed hourly.
DIO mice were pretreated with ACY775 (10 mg/kg/day, i.p.) or vehicle for 3 days, which was followed by a last injection of ACY775 (or vehicle) in the morning of fourth day. 6 hours later mice were injected with saline or leptin (1 mg/kg, i.p.) and the hypothalamus were extracted after 45 minutes following the leptin injection.
6 hours later mice were injected with saline or leptin (1 mg/kg, i.p.) and hypothalamus were extracted after 45 minutes following the leptin injection. Immunoblots for STAT3^Tyr705 phosphorylation and total STAT3 from the hypothalamus were made to quantify the ratio of p-STAT3^Tyr705 to total-STAT3 signal in the immunoblots. The results were reproduced in two independent experiments.
DIO mice were pretreated with ricolinostat (50 mg/kg/day, i.p.) or vehicle 3 days, which was followed by a last injection of ricolinostat (or vehicle) in the morning of fourth day. 6 hours later mice were injected with saline or leptin (1 mg/kg, i.p.) and the hypothalamus were extracted after 45 minutes following the leptin injection. Immunoblots were performed for STAT3^Tyr705 phosphorylation and total STAT3 from the hypothalamus. The ratio of p-STAT3^Tyr705 to total STAT3 signal in the immunoblots was quantified.

HDAC6 KO mice = assay: 3-week treatment of DIO WT versus HDAC6 KO mice; assay type: in vivo; conditions: for body weight, HDAC6 KO vs WT DIO mice: 3 weeks i.p., ACY775 10, ACY738 50, Tubastatin A 25 mg/kg/day
[7] = Brain/plasma ratio, brain and hypothalamus penetrance; assay type: in vivo; conditions: in words
HDAC6 [8] = biological target: HDAC6 (Mus musculus (Mouse), UniProt Q9Z2V5); assay: HDAC6 inhibition in hypothalamus and other brain regions (Ac-tubulin); set-up: species or system mice; conditions: in vivo
[9] = 5 mg/kg i.p.; cited from earlier work
HDAC6 in AgRP neurons = assay: DIO mice with HDAC6 deleted in AgRP neurons (HDAC6^Agrp-Δ); assay type: in vivo; conditions: chronic treatment
Protocol: Design, validation, and stereotaxic injection of AAV viral vector carrying the guide RNAs targeting the mouse HDAC6 genomic locus. Three designed sgRNAs were concatenated and constructed into an AAV vector carrying a cre-enabled mCherry fluorescent marker.
Following the bilateral injection of AAV-sgHDAC6 into the arcuate nucleus of Agrp-ires-cre::LSL-Cas9-GFP (Agrp-Cre^+/−::Cas9^+/−) or control LSL-Cas9-GFP (Cas9^+/−) mice, immunostaining to detect the expression of mCherry and GFP was performed. AAV-sg-HDAC6 injected Agrp-Cre^+/−::Cas9^+/− (HDAC6^Agrp-Δ) and Cas9^+/− (HDAC6^WT) DIO mice (n=7 for each group) were fasted for 24 hours, and injected with ACY775 (10 mg/kg. i.p). Hourly total dark cycle food intake (g) (n=7 for each group) of these mice after ACY775 injection was measured. Body weight of AAV-sg-HDAC6 injected HDAC6^Agrp-Δ (n=11) and HDAC6^WT (n=6) mice were measured during 3 weeks of ACY775 (10 mg/kg/day, i.p.) treatment. Daily average food intake of HDAC6^Agro-Δ (n=11) and HDAC6^WT (n=6) mice was measured during 3 weeks of ACY775 (10 mg/kg/day, i.p.) treatment. 24-hour food intake average of HDAC Agrp- and HDAC6^WT mice during the 3 weeks of ACY775 treatment was assessed. Serum leptin level (ng/ml) of HDAC6^Agrp-Δ and HDAC6^WT mice after 2 weeks of ACY775 treatment (n=13 for HDAC6^WT and n=18 for HDAC6^Agrp-Δ) was measured. Lean mass (g); fat mass; and fat percentage (%) of HDAC Agrp- and HDAC6^WT DIO mice after 3 weeks of ACY775 treatment was measured by DEXA scan. The HDAC6 inhibitor responsive neurons in the dorsomedial hypothalamus (DMH) were assessed. Immunostaining and quantification of c-Fos expression was performed in the DMH of DIO mice following one-time ACY775 treatment (10 mg/kg, i.p.).

diet-induced obese mice = conditions: cited from earlier work

Chain of HDAC6 (Mus musculus (Mouse), UniProt Q9Z2V5) (Q9Z2V5 whole entry): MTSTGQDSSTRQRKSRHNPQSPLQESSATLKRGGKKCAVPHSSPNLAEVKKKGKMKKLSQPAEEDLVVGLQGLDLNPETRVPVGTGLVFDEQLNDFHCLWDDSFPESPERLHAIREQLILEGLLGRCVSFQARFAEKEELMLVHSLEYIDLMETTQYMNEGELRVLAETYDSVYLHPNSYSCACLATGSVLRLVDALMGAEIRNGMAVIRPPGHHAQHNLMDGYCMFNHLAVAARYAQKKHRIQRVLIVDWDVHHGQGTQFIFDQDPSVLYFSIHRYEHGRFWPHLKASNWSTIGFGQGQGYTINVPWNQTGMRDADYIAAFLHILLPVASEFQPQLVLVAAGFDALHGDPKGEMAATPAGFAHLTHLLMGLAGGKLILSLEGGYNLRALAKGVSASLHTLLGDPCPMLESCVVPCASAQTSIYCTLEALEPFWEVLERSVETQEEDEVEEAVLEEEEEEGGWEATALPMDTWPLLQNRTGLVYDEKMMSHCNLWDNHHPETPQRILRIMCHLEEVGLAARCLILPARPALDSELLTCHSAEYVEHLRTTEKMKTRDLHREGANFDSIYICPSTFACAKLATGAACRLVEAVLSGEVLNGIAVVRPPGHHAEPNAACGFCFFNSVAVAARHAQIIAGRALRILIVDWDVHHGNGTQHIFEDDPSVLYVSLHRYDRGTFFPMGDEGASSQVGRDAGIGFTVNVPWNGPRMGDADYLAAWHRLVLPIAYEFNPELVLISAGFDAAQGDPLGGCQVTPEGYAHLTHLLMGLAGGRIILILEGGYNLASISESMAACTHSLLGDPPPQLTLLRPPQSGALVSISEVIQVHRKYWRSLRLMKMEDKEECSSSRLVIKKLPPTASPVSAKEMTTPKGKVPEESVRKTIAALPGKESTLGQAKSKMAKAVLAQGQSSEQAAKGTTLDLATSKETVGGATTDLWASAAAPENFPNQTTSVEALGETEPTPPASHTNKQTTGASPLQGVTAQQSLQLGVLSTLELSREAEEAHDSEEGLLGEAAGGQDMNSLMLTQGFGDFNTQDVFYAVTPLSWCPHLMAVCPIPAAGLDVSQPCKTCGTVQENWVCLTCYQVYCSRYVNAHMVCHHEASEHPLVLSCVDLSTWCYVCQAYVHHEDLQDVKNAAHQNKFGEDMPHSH
Chain of HDAC6 (Homo sapiens (Human), UniProt Q9UBN7) (Q9UBN7 whole entry, species assumed): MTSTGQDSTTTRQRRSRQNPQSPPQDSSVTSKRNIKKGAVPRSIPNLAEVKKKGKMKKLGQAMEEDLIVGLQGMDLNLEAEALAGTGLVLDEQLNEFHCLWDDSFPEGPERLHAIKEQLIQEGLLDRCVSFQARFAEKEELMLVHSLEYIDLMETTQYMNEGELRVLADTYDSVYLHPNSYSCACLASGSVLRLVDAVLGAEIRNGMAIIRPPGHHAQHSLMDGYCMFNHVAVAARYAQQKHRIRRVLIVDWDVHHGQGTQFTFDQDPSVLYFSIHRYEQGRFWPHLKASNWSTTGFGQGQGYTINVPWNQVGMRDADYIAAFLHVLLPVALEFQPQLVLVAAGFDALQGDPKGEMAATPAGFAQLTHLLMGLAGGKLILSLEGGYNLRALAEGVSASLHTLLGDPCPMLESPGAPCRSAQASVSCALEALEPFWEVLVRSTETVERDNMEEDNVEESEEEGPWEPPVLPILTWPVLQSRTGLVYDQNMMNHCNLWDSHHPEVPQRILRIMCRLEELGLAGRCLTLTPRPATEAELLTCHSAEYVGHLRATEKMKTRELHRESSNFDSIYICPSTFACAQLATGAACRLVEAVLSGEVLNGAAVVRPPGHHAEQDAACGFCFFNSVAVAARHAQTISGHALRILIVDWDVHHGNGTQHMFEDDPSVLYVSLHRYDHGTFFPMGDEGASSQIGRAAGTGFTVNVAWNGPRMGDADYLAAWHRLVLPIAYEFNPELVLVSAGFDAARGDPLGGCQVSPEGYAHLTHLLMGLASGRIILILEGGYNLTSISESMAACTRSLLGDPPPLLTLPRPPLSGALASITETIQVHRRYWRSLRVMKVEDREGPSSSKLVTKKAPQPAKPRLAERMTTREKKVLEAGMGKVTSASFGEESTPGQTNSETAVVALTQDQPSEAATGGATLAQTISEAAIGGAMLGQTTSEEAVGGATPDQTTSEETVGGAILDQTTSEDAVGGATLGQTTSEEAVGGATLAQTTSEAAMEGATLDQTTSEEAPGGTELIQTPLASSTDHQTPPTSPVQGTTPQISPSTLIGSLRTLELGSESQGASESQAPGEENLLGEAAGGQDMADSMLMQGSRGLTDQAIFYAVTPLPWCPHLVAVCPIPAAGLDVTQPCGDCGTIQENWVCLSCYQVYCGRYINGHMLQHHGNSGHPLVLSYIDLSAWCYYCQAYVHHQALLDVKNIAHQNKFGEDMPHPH

HDAC6 inhibition in the hypothalamus (HDAC6 [8])	Compound	brain penetrance / BBB permeability [3]	food intake and total body fat mass (DIO mice [4])	body weight, HDAC6 KO vs WT DIO mice (HDAC6 KO mice)	body weight effect of chronic treatment (DIO mice [4])	penetrance into the hypothalamus [7]	HDAC6 inhibition in other brain regions (cerebrum, frontal lobe, temporal lobe, brainstem) (HDAC6 [8])	further results
	O=C(NO)c1cnc(NC2(c3ccccc3)CCC(F)(F)CC2)nc1 [ACY1083]	brain-penetrating	significant reduction of food intake and total body fat mass					body weight over 14 days (DIO mice [1]): significant decrease in body weight; also recorded: Significant weight loss; also recorded: reduced body weight; selectivity for HDAC6 than all other classes of HDAC isoforms (HDAC6 [2]): 260 fold
	leptin: peptide hormone, product of the obese (ob) gene							body weight, leptin alone (DIO mice [5]): did not significantly alter their bodyweight; also recorded: did not change their bodyweight; food intake, leptin alone (DIO mice [5]): did not significantly change the food intake; hypothalamic STAT3^Tyr705 phosphorylation, leptin in vehicle-treated mice [6]: did not significantly increase STAT3^Tyr705 phosphorylation
	CN(Cc1ccc(C(=O)NO)cc1F)CC12CC3CC(CC(C3)C1)C2 [Bavarostat, 4-(((((3r,5r,7r)-adamantan-1-yl)methyl)(methyl)amino)methyl)-3-fluoro-N-hydroxybenzamide]	high brain penetrance	significant reduction of food intake and total body fat mass	treatment of wild type mice but not HDAC6 Knockout animals with bavarostat caused weight loss	Significant weight loss; also recorded: statistically significantly effective in reducing food intake and body weight	high penetrance of the hypothalamus		
inhibits HDAC6 in the hypothalamus	CC1CCC(C(C)(C2CCC(C)CC2)C2CCC(C(C)C(C)CCCCC(C)C(C)C)CC2)CC1 (centres unmarked) [ACY257]	limited brain expression	significant reduction of food intake and total body fat mass		as effective as ACY775 in reducing body weight; also recorded: Significant weight loss; also recorded: as effective as ACY775 in lowering body weight	high penetrance into the arctuate nucleus of the hypothalamus	does not inhibit HDAC6 in other brain regions	AUC Brain/AUC Plasma Ratio ([3]; in vivo): 0.01; body weight effect of chronic treatment (DIO mice [4]; listed as ACY 257): greatly reduces body weight; Cmax [9]: 1047 ng/mL; Plasma AUClast [9]: 871 (5 mg/kg i.p.) hr*ng/ml; T1/2 [9]: 8.15 h
not in the hypothalamus	O=C(CCCCCCNC(=O)c1cnc(N(c2ccccc2)c2ccccc2Cl)nc1)NO [Citarinostat]	good brain penetrance			not effective in reducing body weight		inhibits HDAC6 in other brain regions	HDAC6 inhibition in the hypothalamus (HDAC6 [8]; listed as citarinostat): does not show HDAC6 inhibition in the AGP neurons in the hypothalamus; body weight effect of chronic treatment (DIO mice [4]; listed as citarinostat): ineffective weight lowering effect

Compound	HDAC6 inhibition in the hypothalamus (HDAC6 [8])	brain penetrance / BBB permeability [3]	food intake and total body fat mass (DIO mice [4])	body weight, HDAC6 KO vs WT DIO mice (HDAC6 KO mice)	body weight effect of chronic treatment (DIO mice [4])	penetrance into the hypothalamus [7]	HDAC6 inhibition in other brain regions (cerebrum, frontal lobe, temporal lobe, brainstem) (HDAC6 [8])	further results
CN1CCc2c(c3ccccc3n2Cc2ccc(C(=O)NO)cc2)C1 [Tubastatin A]	nor show HDAC6 inhibition in the hypothalamus	extremely low		reduced the body weight of the HDAC6 KO mice the same as the wt mice		neither of which have high penetrance into the hypothalamus		fat mass and fat %, HDAC6 KO vs WT (HDAC6 KO mice; DEXA): significantly lower in both wt and HDAC6 KO groups; lean mass, HDAC6 KO vs WT (HDAC6 KO mice; DEXA): not different; blood glucose, serum insulin and leptin levels, HDAC6 KO vs WT (HDAC6 KO mice; mouse, in vivo): reduced equally in the wt and HDAC6 KO group; food intake, HDAC6 KO vs WT DIO mice (HDAC6 KO mice; mouse, in vivo): reduced similarly; glucose tolerance and insulin sensitivity (GTT, ITT), HDAC6 KO vs WT (HDAC6 KO mice; mouse, in vivo): improved glucose tolerance and increased insulin sensitivity in both wt and the HDAC6 KO mice; anti-obesity effects in HDAC6^Agrp-Δ vs HDAC6^WT DIO mice (HDAC6 in AgRP neurons): did not change Tubastatin A's effects on suppressing feeding or body weight; anti-obesity effects reported by Cakir et al. (diet-induced obese mice): reduce food intake, fat mass, hepatic steatosis and improve systemic glucose homeostasis; also recorded: attenuated in animals with a defective central leptin-melanocortin circuitry; brain/plasma ratio ([3]; in vivo): 0.18

— patent US20240252496A1, “SELECTIVE HYPOTHALAMUS PERMEABLE HDAC6 INHIBITORS FORTREATMENT OF LEPTIN-RESISTANT OBESITY” (The Children’s Medical Center Corporation, priority 2022, published 2024)
